Consider 27 compounds from ChEMBL document CHEMBL1250468, “Synthesis of aryl-heteroaryl ureas (AHUs) based on 4-aminoquinoline and their evaluation against the insulin-like growth factor receptor (IGF-1R)” (Bioorg Med Chem, 2010).

A value given as a limit tells only on which side of the number the result lay.

In the test the target is Insulin-like growth factor 1 receptor (Homo sapiens, UniProt P08069). Description: Inhibition of recombinant IGF1R by ELISA. A general note: An ELISA detects its analyte on a solid surface through an enzyme-linked reagent.
Sequence of Insulin-like growth factor 1 receptor (P08069 31-736 limits assumed): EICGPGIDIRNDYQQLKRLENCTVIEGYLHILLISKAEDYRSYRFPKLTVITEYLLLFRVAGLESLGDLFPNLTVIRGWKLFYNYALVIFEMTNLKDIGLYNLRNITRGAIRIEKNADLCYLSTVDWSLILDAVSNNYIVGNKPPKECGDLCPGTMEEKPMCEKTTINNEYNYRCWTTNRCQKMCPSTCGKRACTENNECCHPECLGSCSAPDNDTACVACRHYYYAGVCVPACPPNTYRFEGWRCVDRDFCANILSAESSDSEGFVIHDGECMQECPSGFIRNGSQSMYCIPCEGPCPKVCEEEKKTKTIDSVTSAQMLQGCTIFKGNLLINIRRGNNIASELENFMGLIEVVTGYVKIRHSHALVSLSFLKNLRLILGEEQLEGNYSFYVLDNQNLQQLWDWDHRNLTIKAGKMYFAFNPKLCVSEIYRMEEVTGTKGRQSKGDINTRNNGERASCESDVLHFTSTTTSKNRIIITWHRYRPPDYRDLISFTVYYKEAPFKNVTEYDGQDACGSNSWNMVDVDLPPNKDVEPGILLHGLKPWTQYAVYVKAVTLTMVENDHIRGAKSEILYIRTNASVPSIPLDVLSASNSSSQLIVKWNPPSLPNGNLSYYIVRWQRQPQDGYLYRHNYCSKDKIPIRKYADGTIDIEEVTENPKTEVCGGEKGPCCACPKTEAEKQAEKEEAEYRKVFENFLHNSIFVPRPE
Sequence of Insulin-like growth factor 1 receptor (P08069 741-1367 limits assumed): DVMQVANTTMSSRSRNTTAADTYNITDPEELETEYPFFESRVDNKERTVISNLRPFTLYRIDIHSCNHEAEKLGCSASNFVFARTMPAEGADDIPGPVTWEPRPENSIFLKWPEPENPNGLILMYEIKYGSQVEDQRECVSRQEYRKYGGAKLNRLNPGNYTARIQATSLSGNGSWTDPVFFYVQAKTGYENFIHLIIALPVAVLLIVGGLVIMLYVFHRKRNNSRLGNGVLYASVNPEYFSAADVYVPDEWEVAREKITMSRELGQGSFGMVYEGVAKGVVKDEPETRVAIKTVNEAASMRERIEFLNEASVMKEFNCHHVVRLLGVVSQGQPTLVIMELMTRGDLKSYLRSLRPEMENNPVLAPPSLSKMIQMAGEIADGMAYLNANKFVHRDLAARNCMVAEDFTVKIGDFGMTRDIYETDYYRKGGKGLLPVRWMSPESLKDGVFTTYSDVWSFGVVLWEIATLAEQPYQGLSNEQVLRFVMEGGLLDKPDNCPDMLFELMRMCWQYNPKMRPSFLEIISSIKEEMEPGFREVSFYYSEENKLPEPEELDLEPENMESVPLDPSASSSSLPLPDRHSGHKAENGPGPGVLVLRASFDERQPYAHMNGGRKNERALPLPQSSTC
As a reminder, the IC50 is the concentration that inhibits the measured activity by half. With `Cc1cncc(Oc2ccc(NC(=O)Nc3cc(Cl)nc4ccccc34)cc2)n1`, the IC50 was greater than 30 µM.
Next, `Cc1cncc(Oc2ccc(NC(=O)Nc3cc(C(F)(F)F)nc4ccccc34)cc2)n1`: 5.2 µM.
Turning to `COc1ccc(NC(=O)Nc2cc(C(F)(F)F)nc3ccccc23)cc1`, the 50% inhibitory concentration (IC50) is greater than 30 µM.
As for `O=C(Nc1cccc(-c2ncccn2)c1)Nc1cc(C(F)(F)F)nc2ccccc12`, the IC50 was greater than 30 µM.
On to `Cc1cc(NC(=O)Nc2cccc(-c3ncccn3)c2)c2ccccc2n1`, for which the half-inhibitory concentration (IC50) was greater than 30 µM.
Consider `O=C(Nc1ccc([N+](=O)[O-])cc1)Nc1cc(C(F)(F)F)nc2ccccc12`, for which the IC50 was determined as 27.1 µM.
Under `COc1ccc(NC(=O)Nc2cc(C)nc3ccccc23)cc1Cl` stands greater than 30 µM; under `O=C(Nc1ccc(OC(F)(F)F)cc1)Nc1cc(C(F)(F)F)nc2ccccc12`, 6.7 µM; under `COc1ccc(Cl)cc1NC(=O)Nc1cc(C)nc2ncccc12`, 24.7 µM.
`O=C(Nc1ccc(OC(F)(F)F)cc1)Nc1cc(Cl)nc2ccccc12`: the IC50 was 21.4 µM.
For `COc1ccc(Cl)cc1NC(=O)Nc1cc(=O)[nH]c2ccccc12`, the concentration for half-maximal inhibition (IC50) is 6.5 µM.
Under `Cc1cncc(Oc2ccc(NC(=O)Nc3cc(C)nc4ccccc34)cc2)n1` stands 5.6 µM.
Under `Cc1cc(NC(=O)Nc2ccc(-c3ncccn3)cc2)c2ccccc2n1` stands greater than 30 µM; under `COc1ccc(Cl)cc1NC(=O)Nc1cc(C)nc2ccccc12`, 18.7 µM.
`O=C(Nc1ccc(Cl)cc1)Nc1cc(Cl)nc2ccccc12`: the 50% inhibitory concentration (IC50) amounted to 21.1 µM.
In the case of `Cc1cncc(Oc2ccc(NC(=O)Nc3cc(C)nc4ncccc34)cc2)n1`, the IC50 amounted to 12.5 µM.
Under `O=C(Nc1cccc(-c2ncccn2)c1)Nc1cc(Cl)nc2ccccc12` stands greater than 30 µM; under `O=C(Nc1ccc(-c2ncccn2)cc1)Nc1cc(Cl)nc2ccccc12`, greater than 30 µM; under `O=C(Nc1ccc(-c2ncccn2)cc1)Nc1cc(C(F)(F)F)nc2ccccc12`, 19.3 µM.
For `COc1ccc(Cl)cc1NC(=O)Nc1cc(C)nc2cnccc12`, the half-maximal inhibitory concentration (IC50) was greater than 30 µM.
Next, `COc1ccc(NC(=O)Nc2cc(Cl)nc3ccccc23)cc1Cl`: greater than 30 µM; `O=C(Nc1ccc(Cl)cc1)Nc1cc(C(F)(F)F)nc2ccccc12`: 28.1 µM.
Consider `COc1ccc(Cl)cc1NC(=O)Nc1cc(Cl)nc2ccccc12`, for which the IC50 was 14.9 µM.
As to `COc1ccc(NC(=O)Nc2cc(Cl)nc3ccccc23)cc1`, the IC50 is greater than 30 µM.
Consider `COc1ccc(Cl)cc1NC(=O)Nc1cc(C)nc2c1CCCN2`, for which the IC50 is 20.5 µM.
Next, `COc1cc(OC)c(NC(=O)Nc2cc(C)nc3cnccc23)cc1Cl`: greater than 30 µM; `Cc1cc(NC(=O)Nc2ccc(Cl)cc2)c2ccccc2n1`: greater than 30 µM.
